Where two headings read alike, the source gives them in different places.
Target: T1, human FXR (NR1H4) (Homo sapiens, UniProt Q96RI1)
T1 sequence (Q96RI1 1-486): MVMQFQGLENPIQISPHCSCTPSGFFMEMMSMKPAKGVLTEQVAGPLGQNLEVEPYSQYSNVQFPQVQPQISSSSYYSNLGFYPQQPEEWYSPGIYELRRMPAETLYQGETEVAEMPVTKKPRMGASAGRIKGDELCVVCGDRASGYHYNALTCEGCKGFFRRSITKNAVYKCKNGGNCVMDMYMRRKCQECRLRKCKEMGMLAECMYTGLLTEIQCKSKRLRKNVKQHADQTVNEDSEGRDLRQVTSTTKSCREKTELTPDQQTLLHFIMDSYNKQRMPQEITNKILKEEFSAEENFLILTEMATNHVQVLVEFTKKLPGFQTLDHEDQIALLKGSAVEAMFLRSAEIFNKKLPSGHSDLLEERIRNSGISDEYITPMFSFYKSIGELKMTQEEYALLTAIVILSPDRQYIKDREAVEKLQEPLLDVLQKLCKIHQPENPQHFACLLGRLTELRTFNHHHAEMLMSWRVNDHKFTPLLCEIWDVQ
Assay: Human FXR (NR1H4) Assay: Gal4 promoter driven luciferase reporter transactivation in CHO cells (Indigo Bioscience kit IB00601)
Format: cell-based
Settings: for EC50: potency range, Human FXR (NR1H4) reporter assay in CHO cells, read-out: EC50; for Emax: CHO, read-out: Efficacy (%)
Text: Human FXR (NR1H4) Assay Determination of a ligand mediated Gal4 promoter driven transactivation to quantify ligand binding mediated activation of FXR. FXR Reporter Assay kit purchased from Indigo Bioscience (Catalogue number: IB00601) to determine the potency and efficacy of compounds that can induce FXR activation. The principle application of this reporter assay system is to quantify functional activity of human FXR. The assay utilizes non-human mammalian cells, CHO (Chinese hamster ovary) cells engineered to express human NR1H4 protein (referred to as FXR). Reporter cells also incorporate the cDNA encoding beetle luciferase which catalyzes the substrates and yields photon emission. Luminescence intensity of the reaction is quantified using a plate-reading luminometer, Envision. Reporter Cells include the luciferase reporter gene functionally linked to an FXR responsive promoter. Thus, quantifying changes in luciferase expression in the treated reporter cells provides a sensitive surrogate measure of the changes in FXR activity. […] The assay is according to the manufacturer's instructions. […] Retrieve Reporter Cells from −80° C. storage. Perform a rapid thaw of the frozen cells by transferring a 10 ml volume of 37° C. cell recovery medium into the tube of frozen cells. […] Retrieve the tube of Reporter Cell Suspension from the water bath. […] Dispense 90 μl of cell suspension into each well of the 96-well Assay Plate. Transfer the plate into 37° C. incubator, allowing the cells adherent to the bottom of the well. Dilute compounds in Dilution Plate (DP), and administrate to cells at Assay Plate (AP). […] Cells were incubated for additional 22 hours before luciferase activities were measured. Thirty minutes before intending to quantify FXR activity, remove Detection Substrate and Detection Buffer from the refrigerator and place them in a low-light area so that they may equilibrate to room temperature. Remove the plate's lid and discard all media contents by ejecting it into an appropriate waste container. Gently tap the inverted plate onto a clean absorbent paper towel to remove residual droplets. Cells will remain tightly adhered to well bottoms. Add 100 μl of luciferase detection reagent to each well of the assay plate. Allow the assay plate to rest at room temperature for at least 5 minutes following the addition of LDR. Set the instrument (Envision) to perform a single 5 second “plate shake” prior to reading the first assay well. Read time may be 0.5 second (500 mSec) per well.

[1] = efficacy normalized to CDCA set as 100%

Row | Compound | EC50 [µM] | Emax [1] [%] | Emax [%]
1 | CN(C)S(=O)(=O)NC(=O)c1cccc(NC(=O)N2C3CCC2CC(OCc2c(-c4ccccc4OC(F)(F)F)noc2C2CC2)C3)c1 (stereo not drawn) [Example 265] | 0.1 to 1 | – | –
2 | O=C(O)c1ccnc(NC(=O)N2C3CCC2CC(OCc2c(-c4ccccc4OC(F)(F)F)noc2C2CC2)C3)c1 (stereo not drawn) [Example 770] | > 1 | 93 | –
3 | COC(=O)c1cccc(OC)c1NC(=O)N1C2CCC1CC(OCc1c(-c3ccccc3OC(F)(F)F)noc1C1CC1)C2 (stereo not drawn) [Example 751] | 0.1 to 1 | 26 | –
4 | CC(C)(C)c1ccc(S(=O)(=O)NC(=O)c2cccc(NC(=O)N3C4CCC3CC(OCc3c(-c5c(Cl)cccc5Cl)noc3C3CC3)C4)c2)cc1 (stereo not drawn) [Example 217] | > 1 | – | –
5 | O=C(Nc1cc(-c2cccnc2)cc(C(F)(F)F)c1)N1C2CCC1CC(OCc1c(-c3c(Cl)cccc3Cl)noc1C1CC1)C2 (stereo not drawn) [Example 14] | < 0.01 | – | –
6 | O=C(O)c1ccc(NC(=O)N2C3CCC2CC(OCc2c(C4CCC5(CC4)CC5)noc2C2CC2)C3)c(C(F)(F)F)c1 (stereo not drawn) [Example 819] | 0.01 to 0.1 | 11 | –
7 | O=C(Nc1ccc(-c2nnn[nH]2)cc1)N1C2CCC1CC(OCc1c(-c3c(Cl)cccc3Cl)noc1C1CC1)C2 (stereo not drawn) [Example 701] | 0.1 to 1 | 306 | –
8 | O=C(Nc1ccncc1)N1C2CCC1CC(OCc1c(-c3c(Cl)cccc3Cl)noc1C1CC1)C2 (stereo not drawn) [Example 17] | 0.01 to 0.1 | – | –
9 | CCOC(=O)c1ccc(NC(=O)N2C3CCC2CC(NCc2c(-c4c(Cl)cccc4Cl)noc2C2CC2)C3)c(OCC)c1 (stereo not drawn) [Example 829] | 0.01 to 0.1 | 57 | –
10 | COC(=O)c1ccc(NC(=O)N2C3CCC2CC(OCc2c(-c4ccccc4OC(F)(F)F)noc2C2CC2)C3)c(F)c1 (stereo not drawn) [Example 237] | 0.1 to 1 | – | –
11 | O=C(Nc1cncc(-c2ccccc2)c1)N1C2CCC1CC(OCc1c(-c3c(Cl)cccc3Cl)noc1C1CC1)C2 (stereo not drawn) [Example 835] | < 0.01 | 223 | –
12 | CC(C)S(=O)(=O)NC(=O)c1ccc(NC(=O)N2C3CCC2CC(OCc2c(-c4ccccc4OC(F)(F)F)noc2C2CC2)C3)cc1 (stereo not drawn) [Example 754] | 0.1 to 1 | 236 | –
13 | O=C(Nc1cccc(-c2nnn[nH]2)c1)N1C2CC[C@H]1CC(OCc1c(-c3c(Cl)cccc3Cl)noc1C1CC1)C2 (stereo partly drawn) [Example 185] | 0.1 to 1 | – | –
14 | O=C(Nc1ccc(C(F)(F)F)cc1)N1C2CCC1CC(OCc1c(-c3c(Cl)cccc3Cl)noc1C1CC1)C2 (stereo not drawn) [Example 8] | 0.1 to 1 | – | –
15 | O=C(O)c1ccc(NC(=O)N2C3CCC2CC(OCc2c(-c4c(Cl)cccc4Cl)noc2C2CC2)C3)c(OC(F)(F)F)c1 (stereo not drawn) [Example 717] | 0.1 to 1 | 149 | –
16 | COC(=O)c1ccc(NC(=O)N2C3CCC2CC(OCc2c(-c4c(Cl)cccc4Cl)noc2C2CC2)C3)c(OC)c1 (stereo not drawn) [Example 190] | 0.01 to 0.1 | – | –
17 | O=C(NCc1ccccc1)N1C2CCC1CC(OCc1c(-c3c(Cl)cccc3Cl)noc1C1CC1)C2 (stereo not drawn) [Example 730] | < 0.01 | 252 | –
18 | O=C(O)c1ccc(NC(=O)N2C3CCC2CC(OCc2c(-c4c(Cl)cccc4Cl)noc2C2CC2)C3)nc1 (stereo not drawn) [Example 788] | 0.01 to 0.1 | 31 | –
19 | COC(=O)c1ccc(OC)c(NC(=O)N2C3CCC2CC(OCc2c(-c4c(Cl)cccc4Cl)noc2C2CC2)C3)c1 (stereo not drawn) [Example 724] | 0.01 to 0.1 | 137 | –
20 | O=C(Nc1ccc2ccccc2c1)N1C2CCC1CC(OCc1c(-c3c(Cl)cccc3Cl)noc1C1CC1)C2 (stereo not drawn) [Example 20] | 0.01 to 0.1 | – | –
21 | C[C@@H](NC(=O)N1C2CCC1CC(OCc1c(-c3c(Cl)cccc3Cl)noc1C1CC1)C2)c1ccccc1 (stereo partly drawn) [Example 694] | 0.1 to 1 | – | 124
22 | O=C(O)c1ccc(NC(=O)N2C3CCC2CC(OCc2c(-c4ccccc4OC(F)(F)F)noc2C2CC2)C3)nc1 (stereo not drawn) [Example 769] | 0.1 to 1 | 132 | –
23 | O=C(O)c1ccc2c(c1)N(C(=O)N1C3CCC1CC(OCc1c(-c4ccccc4OC(F)(F)F)noc1C1CC1)C3)CC2 (stereo not drawn) [Example 590] | > 1 | – | 67

Row | Compound | EC50 [µM] | Emax [1] [%] | Emax [%]
24 | O=C(O)c1c(F)cc(NC(=O)N2C3CCC2CC(OCc2c(-c4c(Cl)cccc4Cl)noc2C2CC2)C3)cc1F (stereo not drawn) [Example 199] | 0.1 to 1 | – | –
25 | O=C(O)c1ccc(NC(=O)N2C3CCC2CC(OCc2c(-c4ccccc4C(F)(F)F)noc2C2CC2)C3)cc1-c1ccccc1 (stereo not drawn) [Example 815] | 0.01 to 0.1 | 36 | –
26 | O=C(O)c1ccc2c(c1)CCN2C(=O)N1C2CCC1CC(OCc1c(-c3ccccc3OC(F)(F)F)noc1C1CC1)C2 (stereo not drawn) [Example 592] | > 1 | – | 227
27 | O=C(Nc1cc(F)cc(F)c1)N1C2CCC1CC(OCc1c(-c3c(Cl)cccc3Cl)noc1C1CC1)C2 (stereo not drawn) [Example 700] | < 0.01 | 292 | –
28 | N#Cc1ccc(NC(=O)N2C3CCC2CC(OCc2c(-c4c(Cl)cccc4Cl)noc2C2CC2)C3)cc1 (stereo not drawn) [Example 9] | 0.01 to 0.1 | – | –
29 | COC(=O)c1ccc(NC(=O)N2C3CCC2CC(OCc2c(-c4ccccc4OC(F)(F)F)noc2C2CC2)C3)c(F)c1 (stereo not drawn) [Example 745] | 0.1 to 1 | – | –
30 | CN1CC=C(c2cccc(NC(=O)N3C4CCC3CC(OCc3c(-c5c(Cl)cccc5Cl)noc3C3CC3)C4)c2)CC1 (stereo not drawn) [Example 715] | 0.01 to 0.1 | 123 | –
31 | O=C(NCCS(=O)(=O)O)c1ccc(NC(=O)N2C3CCC2CC(OCc2c(-c4c(Cl)cccc4Cl)noc2C2CC2)C3)c(F)c1 (stereo not drawn) [Example 780] | 0.1 to 1 | 0 | –
32 | COc1c(NC(=O)N2C3CCC2CC(OCc2c(-c4ccccc4OC(F)(F)F)noc2C2CC2)C3)cccc1C(=O)O (stereo not drawn) [Example 761] | > 1 | 105 | –
33 | NS(=O)(=O)c1cccc(NC(=O)N2C3CCC2CC(OCc2c(-c4c(Cl)cccc4Cl)noc2C2CC2)C3)c1 (stereo not drawn) [Example 24] | 0.1 to 1 | – | –
34 | CCOC(=O)c1cccc(NC(=O)N2C3CCC2CC(OCc2c(-c4ccccc4OC(F)(F)F)noc2C2CC2)C3)n1 (stereo not drawn) [Example 766] | > 1 | 192 | –
35 | O=C(Nc1cccc2ccccc12)N1C2CCC1CC(OCc1c(-c3c(Cl)cccc3Cl)noc1C1CC1)C2 (stereo not drawn) [Example 19] | 0.01 to 0.1 | – | –
36 | CC1(S(=O)(=O)NC(=O)c2ccc(NC(=O)N3C4CCC3CC(OCc3c(-c5c(Cl)cccc5Cl)noc3C3CC3)C4)cc2-c2cncnc2)CC1 (stereo not drawn) [Example 790] | 0.01 to 0.1 | 49 | –
37 | COC(=O)c1ccc(NC(=O)N2C3CCC2CC(OCc2c(-c4c(Cl)cccc4Cl)noc2C2CC2)C3)c(OC(F)(F)F)c1 (stereo not drawn) [Example 716] | 0.1 to 1 | 43 | –
38 | O=C(Nc1ccc(F)cc1)N1C2CCC1CC(OCc1c(-c3c(Cl)cccc3Cl)noc1C1CC1)C2 (stereo not drawn) [Example 698] | 0.01 to 0.1 | 182 | –
39 | O=C(Nc1cccc(-c2cnn(C3CCOCC3)c2)c1)N1C2CCC1CC(OCc1c(-c3c(Cl)cccc3Cl)noc1C1CC1)C2 (stereo not drawn) [Example 708] | < 0.01 | 209 | –
40 | CC1(S(=O)(=O)NC(=O)c2cnc3ccc(NC(=O)N4C5CCC4CC(OCc4c(-c6c(Cl)cccc6Cl)noc4C4CC4)C5)cc3c2)CC1 (stereo not drawn) [Example 791] | 0.1 to 1 | 11 | –
41 | CN(C)S(=O)(=O)c1cccc(NC(=O)N2C3CCC2CC(OCc2c(-c4c(Cl)cccc4Cl)noc2C2CC2)C3)c1 (stereo not drawn) [Example 25] | < 0.01 | – | –
42 | O=C(Nc1cccc(-c2ccccn2)c1)N1C2CCC1CC(OCc1c(-c3c(Cl)cccc3Cl)noc1C1CC1)C2 (stereo not drawn) [Example 736] | < 0.01 | 136 | –
43 | CCOC(=O)c1ccc(NC(=O)N2C3CCC2CC(OCc2c(-c4ccccc4OC(F)(F)F)noc2C2CC2)C3)cc1 (stereo not drawn) [Example 228] | 0.1 to 1 | – | –
44 | CCOC(=O)c1ccnc(NC(=O)N2C3CCC2CC(OCc2c(-c4ccccc4OC(F)(F)F)noc2C2CC2)C3)c1 (stereo not drawn) [Example 765] | 0.01 to 0.1 | 272 | –
45 | N#Cc1cc(F)cc(NC(=O)N2C3CCC2CC(OCc2c(-c4c(Cl)cccc4Cl)noc2C2CC2)C3)c1 (stereo not drawn) [Example 704] | < 0.01 | 157 | –
46 | O=C(O)c1ccc(NC(=O)N2C3CCC2CC(OCc2c(-c4ccccc4OC(F)(F)F)noc2C2CC2)C3)cc1-c1ccccc1 (stereo not drawn) [Example 247] | < 0.01 | – | –
